Where two headings read alike, the source gives them in different places.
What was measured:
Assay in all cases: In vitro cytotoxic activity (metabolisation of Calcein AM)
Format in all cases: cell-based, human
[1] = system: T-lymphoblastic leukemia cell line CEM; details: CEM cells, 72 hours incubation, called GI50, read-out: Cell line tested/IC50 (μmol/L) CEM
Text: (§1) In vitro Cytotoxic Activity (Metabolisation of Calcein AM). Because toxic compounds negatively influence metabolic processes of cells, many standard cytotoxicity assays are based on measurement of metabolisation rate of various artificial substrates. Resulting product is then quantified, for example, by means of spectrometry. The assays can be easily modified for use in 96-well plates. For evaluation of cytotoxicity of the 6,8-disubstituted purines of this invention, a microtiter assay based on quantification of metabolisation of Calcein AM was used. The assay is widely used in drug screening programs and in chemosensitivity testing. In live cells, Calcein AM is enzymatically hydrolysed and accumulation of resulting calcein is manifested by green fluorescence.
(§2) The following human cell lines were used for routine screening of the compounds: normal diploid fibroblasts BJ, T-lymphoblastic leukemia cell line CEM, promyelocytic leukemia cell line HL-60, erytroid leukemia cell line K-562, breast carcinoma cell line MCF-7, osteosarcoma cell line HOS and melanoma cell line G-361. The cells were maintained in Nunc/Corning 80 cm^2 plastic tissue culture flasks and cultured in cell culture medium (DMEM with 5 g/l glucose, 2 mM glutamine, […] penicillin, 100 mmg/ml streptomycin, 10% fetal calf serum and sodium bicarbonate).
(§3) The cell suspensions were prepared and diluted according to the particular cell type and the expected target cell density (2.500-30.000 cells per well based on cell growth characteristics) and pipetted (80 μl) into 96-well plates. Inoculates were allowed a pre-incubation period of 24 hours at 37° C. and 5% CO2 for stabilization. Tested compound was added in total volume of […] of water at time zero. Usually, test compound was evaluated at six 3-fold dilutions. In routine testing, the highest concentration tested was 100 μM, but it could have been adjusted because of limited solubility of a compound. All drug concentrations were tested in triplicates.
(§4) Incubations of cells with the test compounds lasted for 72 hours at 37° C., in 5% CO2 atmosphere and 100% humidity. At the end of incubation period Calcein AM in PBS was added into final concentration of 1 μg/ml. After another 1 hour of incubation fluorescence (FD) was measured with the Labsystem FIA Reader Fluoroscan Ascent (UK). Growth inhibition (GI) was estimated using the following equitation: GI=(mean FDdrug exposed wells−mean FDblank)/(mean FDcontrol wells−mean FDblank)×100%. The GI50 value, the drug concentration causing 50% reduction of Calcein AM conversion, was calculated from the obtained dose response curves.

[2] = system: breast carcinoma cell line MCF-7; details: MCF7 cells, 72 hours incubation, called GI50, read-out: Cell line tested/IC50 (μmol/L) MCF7
Text: as §1, §2, §3, §4

[3] = system: erytroid leukemia cell line K-562; details: 72 hours incubation, called GI50, read-out: Cell line tested/IC50 (μmol/L) K-562
Text: as §1, §2, §3, §4

melanoma cell line G-361 = details: G-361 cells, 72 hours incubation, called GI50, read-out: Cell line tested/IC50 (μmol/L) G-361
Text: as §1, §2, §3, §4

[4] = system: normal diploid fibroblasts BJ; details: BJ cells, 72 hours incubation, called GI50, read-out: Cell line tested/IC50 (μmol/L) BJ
Text: as §1, §2, §3, §4

[5] = system: osteosarcoma cell line HOS; details: HOS cells, 72 hours incubation, called GI50, read-out: Cell line tested/IC50 (μmol/L) HOS
Text: as §1, §2, §3, §4

[6] = Homo sapiens, K562, K-562 cells

Measured: IC50

CC(=CCNc1ncnc2nc(Br)[nH]c12)CO [Compound 3]
> 50 µmol/L: [1] | [2] | [3]; K-562 cells | melanoma cell line G-361 | [4] | [5]

Nc1nc2ncnc(NCc3ccccc3Br)c2[nH]1 [Compound 93]
> 50 µmol/L: [1] | [2] | [3]; K-562 cells | melanoma cell line G-361 | [4] | [5]

COc1nc2ncnc(NCC=C(C)CO)c2[nH]1 [Compound 122]
> 50 µmol/L: [1] | [2] | [3]; K-562 cells | melanoma cell line G-361 | [4] | [5]

COc1nc2ncnc(NCc3cccc(OC)c3O)c2[nH]1 [Compound 130]
> 50 µmol/L: [1] | [2] | [3]; K-562 cells | melanoma cell line G-361 | [4] | [5]

Sc1nc2ncnc(NCc3ccco3)c2[nH]1 [Compound 137, 6-furfurylamino-8-mercaptopurine]
> 50 µmol/L: [1]; Homo sapiens, CCRF-CEM | [2]; Homo sapiens | [3]; [6] | melanoma cell line G-361; Homo sapiens | [4]; Homo sapiens | [5]; Homo sapiens

CSc1nc2ncnc(NCc3ccco3)c2[nH]1 [Compound 147, 6-furfurylamino-8-methylthiopurine]
> 50 µmol/L: [1]; Homo sapiens, CCRF-CEM | [2]; Homo sapiens | [3]; [6] | melanoma cell line G-361; Homo sapiens | [4]; Homo sapiens | [5]; Homo sapiens

Oc1nc2ncnc(NCc3ccco3)c2[nH]1 [Compound 166]
> 50 µmol/L: [1] | [2] | [3]; K-562 cells | melanoma cell line G-361 | [4] | [5]

CC(=CCNc1ncnc2nc(O)[nH]c12)CO [Compound 168]
> 50 µmol/L: [1] | [2] | [3]; K-562 cells | melanoma cell line G-361 | [4] | [5]

Oc1cccc(CNc2ncnc3nc(O)[nH]c23)c1 [Compound 169]
> 50 µmol/L: [1] | [2] | [3]; K-562 cells | melanoma cell line G-361 | [4] | [5]

COc1cccc(CNc2ncnc3nc(O)[nH]c23)c1 [Compound 170]
> 50 µmol/L: [1] | [2] | [3]; K-562 cells | melanoma cell line G-361 | [4] | [5]

Oc1nc2ncnc(Nc3ccccc3)c2[nH]1 [Compound 171]
> 50 µmol/L: [1] | [2] | [3]; K-562 cells | melanoma cell line G-361 | [4] | [5]

COc1cccc(Nc2ncnc3nc(O)[nH]c23)c1 [Compound 172]
> 50 µmol/L: [1] | [2] | [3]; K-562 cells | melanoma cell line G-361 | [4] | [5]

N#Cc1nc2ncnc(NCc3ccco3)c2[nH]1 [Compound 173]
> 50 µmol/L: [1] | [2] | [3]; K-562 cells | melanoma cell line G-361 | [4] | [5]

NCc1nc2ncnc(NCc3ccco3)c2[nH]1 [Compound 180]
> 50 µmol/L: [1] | [2] | [3]; K-562 cells | melanoma cell line G-361 | [4] | [5]

NCc1nc2ncnc(NCc3cccc(F)c3)c2[nH]1 [Compound 182]
> 50 µmol/L: [1] | [2] | [3]; K-562 cells | melanoma cell line G-361 | [4] | [5]

COc1cccc(CNc2ncnc3nc(CN)[nH]c23)c1 [Compound 183]
> 50 µmol/L: [1] | [2] | [3]; K-562 cells | melanoma cell line G-361 | [4] | [5]

NCc1nc2ncnc(Nc3ccccc3)c2[nH]1 [Compound 184]
> 50 µmol/L: [1] | [2] | [3]; K-562 cells | melanoma cell line G-361 | [4] | [5]

COc1ccccc1Nc1ncnc2nc(CN)[nH]c12 [Compound 185]
> 50 µmol/L: [1] | [2] | [3]; K-562 cells | melanoma cell line G-361 | [4] | [5]

COc1cccc(Nc2ncnc3nc(CN)[nH]c23)c1 [Compound 186]
> 50 µmol/L: [1] | [2] | [3]; K-562 cells | melanoma cell line G-361 | [4] | [5]

COC(=O)c1nc2ncnc(NCc3ccco3)c2[nH]1 [Compound 187, 6-furfurylamino-8-(methoxycarbonyl)purine]
> 50 µmol/L: [1]; Homo sapiens, CCRF-CEM | [2]; Homo sapiens | [3]; [6] | melanoma cell line G-361; Homo sapiens | [4]; Homo sapiens | [5]; Homo sapiens

CCOC(=O)c1nc2ncnc(NCc3ccco3)c2[nH]1 [Compound 194, 6-furfurylamino-8-(ethoxycarbonyl)purine]
> 50 µmol/L: [1]; Homo sapiens, CCRF-CEM | [2]; Homo sapiens | [3]; [6] | melanoma cell line G-361; Homo sapiens | [4]; Homo sapiens | [5]; Homo sapiens

O=C(O)c1nc2ncnc(NCc3ccco3)c2[nH]1 [Compound 201]
> 50 µmol/L: [1] | [2] | [3]; K-562 cells | melanoma cell line G-361 | [4] | [5]

NCCCNc1nc2ncnc(NCc3ccco3)c2[nH]1 [Compound 208, 6-furfurylamino-8-(aminopropylamino)purine]
> 50 µmol/L: [1]; Homo sapiens, CCRF-CEM | [2]; Homo sapiens | [3]; [6] | melanoma cell line G-361; Homo sapiens | [4]; Homo sapiens | [5]; Homo sapiens

Source: patent US20130072506A1, “6,8-DISUBSTITUTED PURINE COMPOSITIONS” (priority 2011, published 2013)
